Assay results taken from PubChem BioAssay (NCI).
Values joined by “and” are separate entries in the source; they are usually repeats but may differ in a detail not shown here. Identical values can stand only once.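 96-well plates; 48 h exposure; 5 concentrations. Endpoints by linear interpolation between flanking doses. Not reached: highest tested concentration assigned. At the GI50, growth is halved. At the TGI there is no net growth.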

What was measured:
Assay in all cases: NCI anticancer screen, dose series, 48 h
[1] = test system: RXF 393 renal
[2] = test system: LOX IMVI melanoma
[3] = test system: HL-60(TB) leukemia
[4] = test system: M14 melanoma
[5] = test system: HCT-116 colon
[6] = test system: MDA-MB-231 breast
[7] = test system: A498 renal
[8] = test system: NCI-H522 lung
[9] = test system: MCF7 breast
[10] = test system: CCRF-CEM leukemia

Structure (SMILES) | GI50 [1] [µM] | TGI [1] | GI50 [2] | TGI [2] [µM] | GI50 [3] | TGI [3] | GI50 [4] | TGI [4] [µM] | GI50 [5] | TGI [5] [µM] | GI50 [6] [µM] | TGI [6] | GI50 [7] [µM] | TGI [7] [µM] | GI50 [8] [µM] | TGI [8] | GI50 [9] | TGI [9] [µM] | GI50 [10] [µM] | TGI [10] [µM]
CCOC(=O)c1ccc(N2NC(=O)/C(=C/c3ccc([N+](=O)[O-])o3)C2=O)cc1 | 11.3 | 26 µM | 17.7 µM | 34.4 | 11.7 µM | 47.4 µM | 17 µM | 31.6 | 8.37 µM | 21.4 | 22.5 | 52.9 µM | > 37 | > 51.6 | 4.18 | 8.53 µM | 17.4 µM | 35.9 | 2 | > 61.6
Cc1cccc2c(=O)c3c(sc12)c(NCCCNCCO)nc1ccccc13 | 1.51 | 2.89 µM | 1.38 µM | 2.76 | 1.82 µM | 3.49 µM | 1.81 µM | 3.56 | 1.51 µM | 3.03 | 1.6 | 3.13 µM | 1.3 | 2.83 | 1.65 | 3.54 µM | 1.33 µM | 2.87 | 1.57 | 3.31
CN1CCN(C)C1c1ccc(C2N(C)CCN2C)cc1 | > 100 | > 100 µM | 31.3 µM | > 100 | 37.7 µM | > 100 µM | 18.6 µM | 58.2 | 17.8 µM | 38 | 18.3 | 96.1 µM | 14.4 | > 100 | > 100 | > 100 µM | 20.1 µM | > 100 | 29.8 | > 100
COc1cc(-n2cc(-c3ccc(Cl)cc3)n(-c3ccccc3)c2=O)cc(OC)c1OC | 24.5 | > 100 µM | 24.3 µM | > 100 | 2.82 µM | > 47.6 µM | 23.8 µM | 98.9 | 13.7 µM | > 89 | 16.4 | > 68.9 µM | 15.1 | 74.5 | 18.3 | > 76 µM | 15.9 µM | 56 | 2.67 | 
O=C(COc1ccccc1)NNc1ccccc1 | 98.9 | > 300 µM | 12.3 µM and 12.2 µM | > 300 | 3.91 µM and 9.54 µM | > 300 µM | 15.2 µM and 13.9 µM | 171 | 207 µM | > 300 | 73.2 | > 300 µM | 87.7 | > 300 | 7.79 |  | 47.8 µM and 38.8 µM | > 300 | 8.18 | 
COc1cccc(S(=O)(=O)NC2=NCCN2C(=S)SN2CCn3c2nsc3=S)c1 | 16.8 | 46.9 µM | 13.2 µM | 26.5 | 26.1 µM | 79.4 µM | 31.4 µM | > 100 | 16.4 µM | 33 | 28.1 | 96 µM | 68.4 | > 100 | 20.1 | 40.9 µM | 39.4 µM | > 100 | 32.1 | > 100
COc1ccc(Sc2[nH]c(C=O)c3ccccc23)cc1 | 10.7 | 33.3 µM | 12.3 µM | 25.4 | 5.09 µM | 28.4 µM | 12.4 µM | 26 | 12.7 µM | 25.3 | 13.4 | 34.2 µM | 3.44 | 23.5 | 14.3 | 31.8 µM | 12.8 µM | 30.2 | 5.66 | 22.3
CCOc1ccc(-c2nc3ccc(-c4nc5ccc(N6CCN(C)CC6)cc5[nH]4)cc3[nH]2)cc1 |  |  | 0.188 µM | 0.485 | 1.2 µM and 0.162 µM | 1.23 µM | 0.264 µM | 2.08 | 0.0397 µM | 0.26 | 1.25 | 2.6 µM | 0.223 | 1.05 | 0.09 | 0.442 µM | 0.0328 µM | 0.38 | 0.316 | 1.87
CC[C@]12CN3CCc4c([nH]c5ccccc45)[C@@](C(=O)OC)(c4cc5c(cc4OC)N(C)[C@H]4[C@@](O)(C(=O)OC)[C@H](OC(C)=O)[C@]6(CC)C=CCN7CC[C@]54[C@@H]76)CC(C3)[C@H]1O2 (stereo not given in full) |  | > 100 µM | 0.145 µM | > 100 | 0.088 µM |  | 0.239 µM | 25.1 | 0.147 µM | > 100 |  | 7.02 µM and > 11 µM | 0.241 |  |  |  | 0.0181 µM | > 33.9 | 0.116 | > 50
CCCCCSc1ccc2nc(NC(=O)OCC)sc2c1 | 1.03 | 9.19 µM | 0.455 µM | > 100 | 0.351 µM | > 100 µM | 0.446 µM | > 100 | 0.466 µM | > 100 | 0.95 | > 100 µM | 1.22 | 7.88 | 0.245 | 0.865 µM | 0.3 µM | > 100 | 0.628 | > 100
O=C1OC2(c3ccc(O)cc3Oc3cc(O)ccc32)c2cccc3cccc1c23 | 13.8 | 26.9 µM | 18.1 µM | 36 | 30.6 µM | 81.6 µM | 22.3 µM | 56.7 | 22.4 µM | > 100 | 14.3 | 40.3 µM | 24.8 | 70.1 | 17.5 | 43.7 µM | 19.9 µM | 91.3 | 26.5 | > 100
COc1cccc(/C=N\NC(=O)c2ccncc2)c1O | 5.49 | > 100 µM | 2.2 µM | > 100 | 2.27 µM | 8.73 µM | 4.68 µM | > 100 | 3.47 µM | > 100 | 7.61 | > 100 µM | 51.1 | > 100 | 3.24 | > 100 µM | 6.27 µM | > 100 | 1.86 | > 100
CCCCCCOC(=O)CC1=C(C)/C(=C/c2[nH]c(-c3ccc[nH]3)cc2OC)N=C1C | 0.163 | 1.07 µM | 0.0218 µM | 0.0565 | 0.385 µM | 1.76 µM | 0.0342 µM | 0.328 | 0.0311 µM | 1.05 | 0.0336 | 0.626 µM | 0.321 | 1.33 | 0.0506 | 1.12 µM | 0.0961 µM | 1.38 | 0.0256 | 1.56
Clc1cc(Br)ccc1-c1ccc(CNCC2CCNCC2)o1 |  |  | 1.86 µM | 3.7 | 1.89 µM | 3.99 µM | 1.85 µM | 3.7 | 1.69 µM | 3.97 | 1.59 | 3.42 µM | 1.87 | 4.24 | 1.82 | 3.72 µM | 1.74 µM | 3.35 | 1.58 | 3.54
Cc1nnn(C)c1-c1cnc2c3ccc(C(C)(C)O)cc3n([C@H](c3ccccc3)C3CCOCC3)c2c1 | 1.16 | 20.4 µM | < 0.01 µM | 1.52 | < 0.01 µM | 48.1 µM | < 0.01 µM | 30.9 | 0.0149 µM | 16.4 | < 0.01 | 24.7 µM | < 0.0381 | 0.581 | < 0.01 | 20.9 µM | < 0.01 µM | > 100 | 0.0663 | > 100
COc1cc2c(cc1OC)[C@@H]1C(=O)c3ccc4c(c3O[C@@H]1CO2)C[C@H](C(C)C)O4 | 16.4 | > 76.9 µM | 0.264 µM |  | 1.51 µM | > 23.8 µM | 7.86 µM | > 59.4 | 0.0435 µM | > 37.8 | 21.6 | > 100 µM | 0.661 | > 31 | 0.961 |  | 2.66 µM | > 52.2 | 5.41 | > 100
CCNCC(=O)Nc1ccc2c(c1)C(=O)c1ccc(NC(=O)CNCC)cc1C2=O |  | 13.3 µM |  | 6.58 |  | 8.81 µM |  | 12.5 |  | 7.52 |  | 9.88 µM |  | 6.46 |  | 4.61 µM |  | 5.6 |  | > 100
CC(=O)OCC1OC(SC2=N/C(=C\c3ccc(Br)s3)C(=O)N2c2ccccc2)C(OC(C)=O)C(OC(C)=O)C1OC(C)=O (stereo not given) |  | 57.2 µM and > 100 µM |  | > 100 | 8.5 µM and 3.83 µM | > 100 µM and 21.4 µM |  |  | 25.5 µM and 61.2 µM | > 100 |  | > 100 µM |  | > 100 |  | > 100 µM and 94.3 µM |  | > 100 |  | 
OCC1OC(N2C=C(c3nc4ccccc4s3)C3C=CC=CC32)C(O)C(O)C1O (stereo not given) | 18.9 | > 50 µM | 10.9 µM | 26 | 17.1 µM | > 50 µM | 15.3 µM | > 50 | 11.5 µM | 42.4 | 15.4 | > 50 µM | 16 | 38.3 | > 50 | > 50 µM | 18.1 µM | > 50 |  | 
Cc1[nH]c2ccccc2c1CO | 20.2 | 47.6 µM |  |  | 15.8 µM | 39 µM | 16.4 µM | 34.9 | 15.2 µM | 28.5 | 18.1 | 54.7 µM | 17.2 | 56.2 | 12.8 | 28.9 µM | 21.3 µM | 51.5 | 32.8 | > 100
COc1ccc(C(=O)/C=C/c2cc(-c3ccc(OC)c(OC)c3)n[nH]2)cc1OC | 1.45 | 2.98 µM | 1.29 µM | 2.7 | 2.76 µM | > 100 µM | 1.91 µM | 4.11 |  |  | 1.88 | 6.38 µM | 1.27 | 3.2 | 1.69 | 3.9 µM | 0.937 µM | 8.02 | 0.364 | 5.52
CCCCCCCCCCCCCCCCn1cc[n+](C)c1 | 0.252 | 0.907 µM | 0.412 µM | 1.64 | 0.129 µM | 0.321 µM | 0.268 µM | 1.3 | 0.267 µM | 1.22 | 0.814 | 2.23 µM | 0.109 | 0.76 |  |  | 0.367 µM | 1.52 | 0.139 | 0.512
COC(=O)CCc1n(Cc2ccc3ccccc3c2)c2ccccc2[n+]1Cc1ccc2ccccc2c1 | 0.874 | 2.23 µM | 0.557 µM | 1.93 | 0.207 µM | 0.799 µM | 0.524 µM | 2.04 |  |  | 0.682 | 2.19 µM | 1.53 | 3.45 | 0.44 | 1.77 µM | 0.795 µM | 2.34 |  | 
CCN1/C(=C/C(C)=C/c2sc3ccc4ccccc4c3[n+]2CC)Sc2ccc3ccccc3c21 |  |  | 0.183 µM | 0.465 | 0.106 µM | 2.68 µM | 0.196 µM | 0.58 | 0.127 µM | 0.293 | 0.271 | 1.04 µM | 0.181 | 0.759 | 0.121 | 0.528 µM | 0.149 µM | 0.42 |  | 
O=S(O)O.O=S(O)O.[Co].[NH2-].[NH2-].[NH2-].[NH2-] | > 100 | > 100 µM | > 100 µM | > 100 | > 100 µM | > 100 µM | > 100 µM | > 100 | > 100 µM | > 100 | > 100 | > 100 µM | > 100 | > 100 | > 100 | > 100 µM | > 100 µM | > 100 |  | 
CN1CCc2ccccc2C1Cc1ccccc1NC(=O)c1sc2ccccc2c1Cl (stereo not given) |  | > 100 µM |  |  |  | > 100 µM |  | > 100 |  | > 100 |  | > 100 µM |  | > 100 |  | > 100 µM |  | > 100 |  | > 100
COc1ccc(O)c(/C=N\Nc2ccccc2)c1 |  | > 100 µM |  | 13 |  | 17.4 µM |  | 73.2 |  | > 100 |  | > 100 µM |  | 91.6 |  | 49.2 µM |  | > 100 |  | 
